One substance from patent US5505944A, “Physiologically active substance NK175203, process for production thereof and pharmaceutical use thereof” (Nippon Kayaku Kabushiki Kaisha, priority 1992, dated 1996) can be followed below.

This assay concerns bone marrow cells. Nature of the assay: Bone marrow cell proliferation activity (uptake of [3H]-thymidine). The format is cell-based, C57BL/6 mouse. The conditions noted are these: GM-CSF 100 U/ml alone, NK175203 0 μg/ml. The protocol: The femur was withdrawn from C57BL/6 mouse (10 weeks old) and the bone marrow cells were washed out in Eagle's MEM medium. After allowing to stand at 37° C. for 2 hours in 5% CO2, the supernatant was gently taken to recover the suspended cells alone. The cells were centrifuged at 1200 rpm for 5 minutes to collect the cells. After rinsing with α-MEM medium, the cells were suspended in 20% FBS-containing α-MEM medium. The thus obtained bone marrow cells were inoculated on a 96-well plate in a concentration of 7.5×10^5 cells/200 μl/well, together with the physiologically active substance NK175203 of the present invention or GM-CSF (Lantrell, M. A. et al., Proc. Natl. Acad. Sci., 8.2, 6250-6254, 1985). Incubation was then performed at 37° C. for 112 hours in 5% CO2. Finally ^3 H-thymidine of 37 KBq was added to the system. After culturing for 8 hours, uptake of ^3 H-thymidine into the cells was determined by a liquid scintillation counter.

As to “GM-CSF: GM-CSF (Lantrell, M. A. et al., Proc. Natl. Acad. Sci.)”, the “Uptake of [3H]-Thymidine, mean ± standard error” value is 33484.4 ± 2136.1. Further, the “Uptake of [3H]-Thymidine, %” value (reference (100%) of the GM-CSF series) came out at 100%.
